From ChEMBL document CHEMBL1133149, “Synthesis and biological evaluation of analogues of bacterial lipid I” (Bioorg Med Chem Lett, 2000)
Converted amounts (≈) assume the structure as drawn. Each block holds one compound with its values, some of them ahead of it.

Assays:
[1] = test system: Escherichia coli; test: Compound was evaluated for its ability to inhibit MraY enzyme for the conversion of Lipid I to lipid II in the coupled MraY/MurG assay; Ni is No Inhibition at 238 ug/mL
[2] = test system: Escherichia coli; test: Compound was evaluated for its ability to inhibit MurG enzyme for the conversion of Lipid I to lipid II in the coupled MraY/MurG assay; NI is No inhibition at 238 ug/mL
[3] = test system: Escherichia coli; test: Compound was evaluated for its ability to inhibit the formation of peptidoglycan by incorporation of [14C]GlcNAc into TCA insoluble, filter-capturable material; NI is No Inhibition at 200 ug/mL; assay type: functional, organism-based
[4] = Compound was evaluated for its ability to inhibit MurG enzyme for the conversion of Lipid I to lipid II in MurG enzyme assay; design: species or system Escherichia coli
[5] = (§1) Compound was evaluated for its ability to inhibit MurG enzyme for the conversion of Lipid I to lipid II in coupled MraY/MurG assay; NI is No Inhibition at 234 ug/mL; design: species or system Escherichia coli
[6] = Compound was evaluated for its ability to inhibit MraY enzyme for the conversion of Lipid I to lipid II in coupled MraY/MurG assay; NI is No Inhibition at 234 ug/mL; design: species or system Escherichia coli
[7] = test system: Escherichia coli; test: Compound was evaluated for its ability to inhibit MurG enzyme for the conversion of Lipid I to lipid II in MurG enzyme assay; NI is No Inhibition at 256 ug/mL
[8] = test system: Escherichia coli; test: Compound was evaluated for its ability to inhibit MraY enzyme for the conversion of Lipid I to lipid II in the coupled MraY/MurG assay; Ni is No Inhibition at 256 ug/mL
[9] = test system: Escherichia coli; test: Compound was evaluated for its ability to inhibit MurG enzyme for the conversion of Lipid I to lipid II in coupled MraY/MurG assay; NI is No Inhibition at 256 ug/mL
[10] = test system: Escherichia coli; test: as §1
[11] = test system: Escherichia coli; test: Compound was evaluated for its ability to inhibit MurG enzyme for the conversion of Lipid I to lipid II in MurG enzyme assay; NI is No Inhibition at 234 ug/mL
[12] = test system: Escherichia coli; test: Compound was evaluated for its ability to inhibit MraY enzyme for the conversion of Lipid I to lipid II in the coupled MraY/MurG assay; Ni is No Inhibition at 234 ug/mL

Activity [1]: No inhibition
Activity [2]: No inhibition
IC50 [4]: 50 mg/L (≈ 59.3 µM)
Compound: CC(=O)NC1C(OP(=O)(O)O)OC(CO)C(O)C1O[C@@H](C)C(=O)N[C@@H](C)C(=O)N[C@H](CCC(=O)N[C@@H](CCCCN)C(=O)N[C@H](C)C(=O)N[C@H](C)C(=O)O)C(=O)O (some centres undefined)
Activity [3]: No inhibition

Activity [7]: No inhibition
Activity [8]: No inhibition
Activity [9]: No inhibition
Compound: COC1OC(CO)C(O)C(O[C@@H](C)C(=O)N[C@@H](C)C(=O)N[C@H](CCC(=O)N[C@@H](CCCCN)C(=O)N[C@H](C)C(=O)N[C@H](C)C(=O)O)C(=O)O)C1NC(C)=O (some centres undefined)
Activity [3]: No inhibition

Activity [10]: No inhibition
Activity [11]: No inhibition
Activity [12]: No inhibition
Compound: CC(=O)NC1C(Sc2ccccc2)OC(CO)C(O)C1O[C@@H](C)C(=O)N[C@@H](C)C(=O)N[C@H](CCC(=O)N[C@@H](CCCCN)C(=O)N[C@H](C)C(=O)N[C@H](C)C(=O)O)C(=O)O (some centres undefined)
Activity [3]: No inhibition

Second part, the compound before the results:

Compound: RAMOPLANIN
IC50 [5]: < 1 mg/L

Compound: CC(=O)N[C@H]1[C@@H](O[C@@H]2O[C@H](CC(O)[C@H]3O[C@@H](n4ccc(=O)[nH]c4=O)[C@H](O)[C@@H]3O)[C@H](O)[C@H](O)[C@H]2NC(=O)/C=C/CC(C)C)O[C@H](CO)[C@@H](N)[C@@H]1O (some centres undefined) [TUNICAMYCIN]
IC50 [6]: < 1 mg/L
